The source of these data is patent US20170100433A1, “MODIFIED NATURAL KILLER CELLS HAVING ANTI-FUGETACTIC PROPERTIES AND USES THEREOF” (THE GENERAL HOSPITAL CORPORATION DBA MASSACHUSETTS GENERAL …, priority 2015, published 2017).

In assay [1] the test system is human CD3+ T cells. The conditions noted are these: T cells incubated with 0.01 μM to 10 mM AMD3100; anti-fugetactic at lower, fugetactic at higher concentrations; cells harvested after 3 h. How it is done:
For quantitative transmigration assays, purified human CD3^+ T cells (approximately 2×10^4 cells) are added to the upper chamber of a Transwell® insert in each well, to a total volume of 150 μl of Iscove's modified medium. […] To determine the anti-fugetactic concentration of AMD3100, the T cells are incubated with 0.01 μM to 10 mM AMD3100 prior to addition to the chamber. Cells are harvested from the lower chamber after 3 h, and cell counts are performed using a hemocytometer.

Assay [2] has as its system human CD3+ T cells. To be noted: CI of 1.0 is the control, triplicate wells. Here is the method:
Freshly prepared and purified human CD3^+ T cells were prepared from healthy donor peripheral blood. 20,000 T cells were loaded into the upper chamber of the Transwell in control, chemotactic or fugetactic settings with AMD3100 at concentrations between 0.1 μM and 10 μM. Migrated cells were counted in the lower chamber and migration quantitated as previously described. Vianello et al. The Journal of Immunology, 2006, 176: 2902-2914; Righi et al., Cancer Res.; 71(16); 5522-34, each of which is incorporated herein in its entirety.
All wells were run in triplicate.

Turning to `c1cc(CN2CCCNCCNCCCNCC2)ccc1CN1CCCNCCNCCCNCC1` [AMD3100, 1,1′-[1,4-phenylenebis(methylene)]bis [1,4,8,11-tetraazacyclotetradecane]], the “Effect of AMD3100 pre-incubation on T cell migration” value in the assay with human CD3+ T cells [1] is listed as “bimodal effect”. Moreover, the “CI (chemotactic index), chemotactic response” value with human CD3+ T cells [2] (chemotactic setting, AMD3100 at 1 μM, FIG. 1) worked out at 2.3. The “CI (chemotactic index), fugetactic response” value in the assay with human CD3+ T cells [2] (fugetactic setting, AMD3100 at 0.1 μM, FIG. 2) came out at 1.6.
